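Cultured in 96-well plates, cells were exposed to test compound for 48 hours across five concentrations. At the GI50, growth is halved. TGI: total growth inhibition.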
What was measured:
Experiment in all cases: NCI tumour cell line growth inhibition, 48 h
MDA-MB-231 breast = test system: MDA-MB-231 breast
DMS 273 small cell lung = test system: DMS 273 small cell lung
HS 578T breast = test system: HS 578T breast
SNB-78 CNS = test system: SNB-78 CNS
NCI/ADR-RES ovarian = test system: NCI/ADR-RES ovarian
M19-MEL melanoma = test system: M19-MEL melanoma
HOP-18 NSCLC = test system: HOP-18 NSCLC
DU-145 prostate = test system: DU-145 prostate
BT-549 breast = test system: BT-549 breast

With CC1C(=O)C(C)C(c2ccccc2)N(N=O)C1c1ccccc1 (centres undefined) the TGI (MDA-MB-231 breast) was 250 µM, the TGI (DMS 273 small cell lung) was over 1000 µM and the GI50 (HS 578T breast) was 28.6 µM. The TGI (HS 578T breast) was 186 µM, the GI50 (SNB-78 CNS) was 220 µM and the TGI (SNB-78 CNS) was over 766 µM. For the same compound, the TGI (NCI/ADR-RES ovarian) was 867 µM, the GI50 (M19-MEL melanoma) was over 1000 µM and the TGI (M19-MEL melanoma) was over 1000 µM. The GI50 (HOP-18 NSCLC) was over 1000 µM, the TGI (HOP-18 NSCLC) was over 1000 µM and the TGI (DU-145 prostate) was 567 µM.

With OCCCCCCOc1ccc(-c2cc(-c3ccccn3)nc(-c3ccccn3)c2)cc1 the TGI (DMS 273 small cell lung) was 0.978 µM, the TGI (HS 578T breast) was 4.61 µM and the TGI (SNB-78 CNS) was 10.9 µM. The TGI (M19-MEL melanoma) was 1.25 µM, the TGI (BT-549 breast) was 9.21 µM and the TGI (HOP-18 NSCLC) was 3.99 µM. For the same compound, the TGI (DU-145 prostate) was 7.83 µM.

Cc1cc(=O)oc2cc3c(cc12)Oc1ccccc1O3 showed a TGI (DMS 273 small cell lung) of over 100 µM, a TGI (SNB-78 CNS) of over 100 µM and a TGI (M19-MEL melanoma) of over 100 µM. For the same compound, the TGI (HOP-18 NSCLC) was over 100 µM.

COc1cc([C@@H]2c3cc4c(cc3[C@@H](NC(=O)c3ccccc3)C3COC(=O)[C@@H]32)OCO4)cc(OC)c1O (some centres undefined) showed a TGI (DMS 273 small cell lung) of 13.7 µM, a TGI (SNB-78 CNS) of over 100 µM and a TGI (M19-MEL melanoma) of 24.7 µM. The TGI (HOP-18 NSCLC) was over 100 µM.

For Cc1cccc(C(C)C)c1NC(=O)C(=O)CC(=O)c1c(C)n([O-])c2ccccc2[n+]1=O, the TGI (DMS 273 small cell lung) was 99.2 µM, the TGI (SNB-78 CNS) was over 100 µM and the TGI (M19-MEL melanoma) was 50.6 µM. For the same compound, the TGI (HOP-18 NSCLC) was over 100 µM.

CCCCCCCCCCCCCCCCCCCCCC(=O)Nc1ccn(C2OC(CO)C(O)C2O)c(=O)n1 (centres undefined) gave a TGI (DMS 273 small cell lung) of over 100 µM, a TGI (SNB-78 CNS) of over 100 µM and a TGI (M19-MEL melanoma) of over 100 µM. For the same compound, the TGI (HOP-18 NSCLC) was over 100 µM.

With S=c1[nH]c2ccc(Br)cc2c(=S)n1-c1ccccc1 the TGI (DMS 273 small cell lung) was 60.7 µM, the TGI (SNB-78 CNS) was over 100 µM and the TGI (M19-MEL melanoma) was 60.7 µM. The TGI (HOP-18 NSCLC) was 85.4 µM.

COc1cc(CNc2ccc(C(C)C)cc2)cc(OC)c1OC was tested, and the GI50 (DMS 273 small cell lung) was 13 µM, the TGI (DMS 273 small cell lung) was 26.3 µM and the TGI (SNB-78 CNS) was over 100 µM. For the same compound, the TGI (M19-MEL melanoma) was 39 µM and the TGI (HOP-18 NSCLC) was 74.1 µM.
